The target in this experiment is Phospholipase A2 (Homo sapiens, UniProt P04054). The experiment is described as follows: Inhibition of PLA2 in fMLP and A23187 ionophore-stimulated human HL60 cells assessed as effect on [3H]arachidonic acid release. Type of experiment: cell-based. Particulars: hl-60.

Each structure is given as a SMILES string.

Chain of Phospholipase A2 (P04054 whole entry): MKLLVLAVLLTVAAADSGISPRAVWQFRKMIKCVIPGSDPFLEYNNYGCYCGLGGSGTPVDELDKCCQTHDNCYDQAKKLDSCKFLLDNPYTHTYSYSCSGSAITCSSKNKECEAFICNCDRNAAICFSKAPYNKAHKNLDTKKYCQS

One may read the IC50 as the midpoint of a concentration-inhibition curve. For the compound `CC(C)=CCc1cc(C2CC(=O)c3c(cc(O)c(CC=C(C)C)c3O)O2)cc(CC=C(C)C)c1O` (stereo not drawn), the IC50 came out at 10 µM.

In the case of `CC(C)=CCc1cc2c(cc1O)OCc1c-2oc2c(CC=C(C)C)c(O)ccc12` [ERYCRYSTAGALLIN], the 50% inhibitory concentration (IC50) was 3 µM.

`CC(C)=CCc1cc([C@@H]2CC(=O)c3c(O)cc(O)cc3O2)cc(CC=C(C)C)c1O` [ABYSSINONE V]: the IC50 turned out to be 6 µM.

The values are drawn from ChEMBL document CHEMBL1145689, “Phospholipase A 2 Inhibitors from an Erythrina Species from Samoa” (J Nat Prod, 1997).
